Laboratory results taken from PubChem BioAssay AID1963864 (Molecular Pharmacology Branch, DTP, NCI, 2024).
pIC50: −log10 of the molar value.

System: KRAS PDC multicell spheroid viability
Assay: Anticancer human tumor 521955-158-R6-J3-PDC patient-derived pancreatic carcinoma cell line growth inhibition [KRAS2]
Settings: for pIC50: curve of first compound; for viability, T/C: stronger effect = lower value
How it was run: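 KRAS-mutant tumor cells were grown as spheroids with HUVEC endothelial cells and human MSCs as stroma. Targeted agents were tested alone and with KRAS pathway inhibitors. Doses started at or near clinical Cmax, or 10 microM, descending half-log.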

[1] = second compound 0.1 µM, first compound 0.0316 µM
[2] = second compound 0.1 µM, first compound 0.1 µM
[3] = second compound 0.1 µM, first compound 0.316 µM
[4] = second compound 0.1 µM, first compound 1 µM
[5] = second compound 0.1 µM, first compound 3.16 µM
[6] = second compound 0.316 µM, first compound 0.0316 µM
[7] = second compound 0.316 µM, first compound 0.1 µM
[8] = second compound 0.316 µM, first compound 0.316 µM
[9] = second compound 0.316 µM, first compound 1 µM
[10] = second compound 0.316 µM, first compound 3.16 µM
[11] = second compound 1 µM, first compound 0.0316 µM
[12] = second compound 1 µM, first compound 0.1 µM
[13] = second compound 1 µM, first compound 0.316 µM
[14] = second compound 1 µM, first compound 1 µM
[15] = second compound 1 µM, first compound 3.16 µM
[16] = second compound 3.16 µM, first compound 0.0316 µM
[17] = second compound 3.16 µM, first compound 0.1 µM
[18] = second compound 3.16 µM, first compound 0.316 µM
[19] = second compound 3.16 µM, first compound 1 µM
[20] = second compound 3.16 µM, first compound 3.16 µM
[21] = second compound 10 µM, first compound 0.0316 µM
[22] = second compound 10 µM, first compound 0.1 µM
[23] = second compound 10 µM, first compound 0.316 µM
[24] = second compound 10 µM, first compound 1 µM
[25] = second compound 10 µM, first compound 3.16 µM
[26] = second compound 0.1 µM, first compound 10 µM
[27] = second compound 0.316 µM, first compound 10 µM
[28] = second compound 1 µM, first compound 10 µM
[29] = second compound 3.16 µM, first compound 10 µM
[30] = second compound 10 µM, first compound 10 µM
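Also: drug exposure lasted seven days.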
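For viability, T/C in this document: 100% = DMSO vehicle wells and lower means fewer viable cells.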

CC1COCCN1c1cc(-c2ccnn2C)c2ccnc(-c3ccn[nH]3)c2n1 (stereo not given) + COc1cc2nc(C)nc(NC(C)c3cc(N)cc(C(F)(F)F)c3)c2cc1OC1CCOC1
pIC50 (second compound 0.1 µM): < 5.50
pIC50 (second compound 0.316 µM): < 5.50
pIC50 (second compound 1 µM): < 5.50
pIC50 (second compound 3.16 µM): < 5.50
pIC50 (second compound 10 µM): > 8.00
viability, T/C (second compound 0.1 µM, first compound 0.01 µM): 100%
viability, T/C [1]: 85.4%
viability, T/C [2]: 71.3%
viability, T/C [3]: 78.3%
viability, T/C [4]: 65.5%
viability, T/C [5]: 80.4%
viability, T/C (second compound 0.316 µM, first compound 0.01 µM): 82.8%
viability, T/C [6]: 79.6%
viability, T/C [7]: 79.1%
viability, T/C [8]: 71%
viability, T/C [9]: 64.4%
viability, T/C [10]: 75.3%
viability, T/C (second compound 1 µM, first compound 0.01 µM): 88.5%
viability, T/C [11]: 78.2%
viability, T/C [12]: 78.3%
viability, T/C [13]: 68.6%
viability, T/C [14]: 66.8%
viability, T/C [15]: 74.8%
viability, T/C (second compound 3.16 µM, first compound 0.01 µM): 77.6%
viability, T/C [16]: 71.6%
viability, T/C [17]: 62.4%
viability, T/C [18]: 54.6%
viability, T/C [19]: 64.3%
viability, T/C [20]: 59.1%
viability, T/C (second compound 10 µM, first compound 0.01 µM): 41.5%
viability, T/C [21]: 48.4%
viability, T/C [22]: 45.3%
viability, T/C [23]: 34.1%
viability, T/C [24]: 47.6%
viability, T/C [25]: 43.4%

CC1OCC2(CCN(c3cnc(Sc4ccnc(N)c4Cl)c(N)n3)CC2)C1N (stereo not given) + COc1cc2nc(C)nc(NC(C)c3cc(N)cc(C(F)(F)F)c3)c2cc1OC1CCOC1
pIC50 (second compound 0.1 µM): < 5.00
pIC50 (second compound 0.316 µM): < 5.00
pIC50 (second compound 1 µM): < 5.00
pIC50 (second compound 3.16 µM): < 5.00
pIC50 (second compound 10 µM): > 7.50
viability, T/C [1]: 90.6%
viability, T/C [2]: 82.6%
viability, T/C [3]: 74.8%
viability, T/C [4]: 86.5%
viability, T/C [5]: 116%
viability, T/C [26]: 114%
viability, T/C [6]: 82.6%
viability, T/C [7]: 86.1%
viability, T/C [8]: 96.8%
viability, T/C [9]: 87.5%
viability, T/C [10]: 112%
viability, T/C [27]: 118%
viability, T/C [11]: 78%
viability, T/C [12]: 82.1%
viability, T/C [13]: 85%
viability, T/C [14]: 83.7%
viability, T/C [15]: 103%
viability, T/C [28]: 124%
viability, T/C [16]: 76.5%
viability, T/C [17]: 79.7%
viability, T/C [18]: 77.2%
viability, T/C [19]: 76.9%
viability, T/C [20]: 99.2%
viability, T/C [29]: 94.6%
viability, T/C [21]: 43.7%
viability, T/C [22]: 34%
viability, T/C [23]: 35.8%
viability, T/C [24]: 27.1%
viability, T/C [25]: 34.1%
viability, T/C [30]: 18%

Cn1nccc1Nc1nccc(-c2cc3c(s2)C(C)(C)N(CCN2CCOCC2)C3=O)n1 + COc1cc2nc(C)nc(NC(C)c3cc(N)cc(C(F)(F)F)c3)c2cc1OC1CCOC1
pIC50 (second compound 0.1 µM): < 5.00
pIC50 (second compound 0.316 µM): < 5.00
pIC50 (second compound 1 µM): < 5.00
pIC50 (second compound 3.16 µM): 5.21
pIC50 (second compound 10 µM): > 7.50
viability, T/C [1]: 88.5%
viability, T/C [2]: 111%
viability, T/C [3]: 96.4%
viability, T/C [4]: 85.5%
viability, T/C [5]: 79.6%
viability, T/C [26]: 64.8%
viability, T/C [6]: 86.5%
viability, T/C [7]: 111%
viability, T/C [8]: 103%
viability, T/C [9]: 81.9%
viability, T/C [10]: 71.2%
viability, T/C [27]: 57.7%
viability, T/C [11]: 79.1%
viability, T/C [12]: 111%
viability, T/C [13]: 99.6%
viability, T/C [14]: 82.2%
viability, T/C [15]: 65.4%
viability, T/C [28]: 56.1%
viability, T/C [16]: 83.6%
viability, T/C [17]: 110%
viability, T/C [18]: 94.8%
viability, T/C [19]: 73.7%
viability, T/C [20]: 55.9%
viability, T/C [29]: 45.8%
viability, T/C [21]: 26.8%
viability, T/C [22]: 30%
viability, T/C [23]: 16%
viability, T/C [24]: 14.1%
viability, T/C [25]: 6.82%
viability, T/C [30]: 3.23%
